# Assay results taken from PubChem BioAssay (NCI).
#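 Cells were grown in 96-well plates and exposed to each compound for 48 hours at five concentrations; endpoints were interpolated linearly between bracketing concentrations, or set to the highest concentration if not reached. Here, GI50 denotes the concentration required for 50% inhibition of growth. TGI: concentration producing complete growth inhibition.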
# What was measured:
# Experiment in all cases: NCI-60 cell line screen, 48 h
# PC-3 prostate = tested on: PC-3 prostate
# OVCAR-5 ovarian = tested on: OVCAR-5 ovarian
# RPMI-8226 leukemia = tested on: RPMI-8226 leukemia
# NCI-H226 lung = tested on: NCI-H226 lung
# SW-620 colon = tested on: SW-620 colon
# SF-268 CNS = tested on: SF-268 CNS
# T-47D breast = tested on: T-47D breast
# SNB-75 CNS = tested on: SNB-75 CNS
# SK-OV-3 ovarian = tested on: SK-OV-3 ovarian
# RXF 393 renal = tested on: RXF 393 renal
Compound,GI50 (PC-3 prostate),TGI (PC-3 prostate),GI50 (OVCAR-5 ovarian),TGI (OVCAR-5 ovarian),GI50 (RPMI-8226 leukemia),TGI (RPMI-8226 leukemia),TGI (NCI-H226 lung),GI50 (SW-620 colon),TGI (SW-620 colon),GI50 (SF-268 CNS),TGI (SF-268 CNS),TGI (T-47D breast),TGI (SNB-75 CNS),GI50 (SK-OV-3 ovarian),TGI (SK-OV-3 ovarian),GI50 (RXF 393 renal),TGI (RXF 393 renal),GI50 (NCI-H226 lung),GI50 (T-47D breast),GI50 (SNB-75 CNS)
COc1ccc2c(c1)c(CC(=O)[Se]C)c(C)n2C(=O)c1ccc(Cl)cc1,> 0.337 µM,> 0.897 µM,> 0.424 µM,> 1 µM,> 0.542 µM,> 0.942 µM,> 0.27 µM,> 0.468 µM,> 0.854 µM,> 0.199 µM,> 0.53 µM,> 1 µM,> 0.238 µM,> 0.658 µM,0.989 µM,> 0.206 µM,> 0.5 µM,,,
COc1ccc2c(CN3CCCC[C@H]3C(=O)O)cc3cc4c(cc3c2c1)OCO4,2.53 µM,7.14 µM,6.17 µM,44.5 µM,2.57 µM,7.24 µM,3.13 µM,0.37 µM,1.79 µM,0.175 µM,1.39 µM,8.04 µM,2.28 µM,3.25 µM,23.1 µM,0.414 µM,2.03 µM,1.42 µM,2.05 µM,0.397 µM
CC(C)CCCC(C)[C@H]1CCC2[C@@H]3CCC4Cc5nc6c(nc5C[C@]4(C)C3CC[C@@]21C)CC1CC[C@@H]2C(CC[C@@]3(C)C2CC[C@@H]3C(C)CCCC(C)C)[C@@]1(C)C6 (some centres undefined),,> 100 µM,,> 100 µM,,> 100 µM,> 100 µM,,> 100 µM,,> 100 µM,> 100 µM,> 100 µM,,> 100 µM,,> 100 µM,,,
CC1=C(C(=O)Nc2ccc3n[nH]c(C)c3c2)C(c2ccc(C(F)(F)F)cc2)CC(=O)N1 (centres undefined),> 25 µM,> 25 µM,16.2 µM,> 25 µM,> 25 µM,> 25 µM,> 17.7 µM,11 µM,> 25 µM,8.59 µM,> 25 µM,> 25 µM,> 18.8 µM,24.2 µM,> 25 µM,6.7 µM,> 25 µM,0.709 µM,> 25 µM,1.24 µM
O=C1Nc2ccc(Br)cc2C1=Nc1cccnc1,,41.2 µM,,> 100 µM,,60.9 µM,> 100 µM,,46.4 µM,,71.8 µM,52.7 µM,> 100 µM,,> 100 µM,,29.1 µM,,,
C#CC#CC#CC#CC#CC#CC#CC#CCC1OCC(COC(=O)O[C@@H](C(=O)O[C@H]2C[C@@]3(O)[C@@H](OC(=O)c4ccccc4)[C@@H]4[C@]5(OC(C)=O)CO[C@@H]5C[C@H](O)[C@@]4(C)C(=O)[C@H](OC(C)=O)C(=C2C)C3(C)C)[C@@H](NC(=O)c2ccccc2)c2ccccc2)O1 (some centres undefined),0.268 µM,> 33.3 µM,0.25 µM,> 33.3 µM,0.0472 µM,> 33.3 µM,> 33.3 µM,0.104 µM,> 33.3 µM,0.379 µM,> 33.3 µM,> 33.3 µM,0.189 µM,0.51 µM,> 33.3 µM,0.599 µM,> 8.96 µM,2.22 µM,0.205 µM,0.0244 µM
CC1CCC/C1=C(/I)C(=O)c1ccccc1 (centres undefined),,> 100 µM,,> 100 µM,,> 100 µM,> 100 µM,,> 100 µM,,> 100 µM,> 100 µM,85 µM,,> 100 µM,,> 100 µM,,,
CC1=C(c2cccc(O)c2)[C@H](c2ccc(OCCN3CC(CF)C3)cc2)Oc2ccc(O)cc21,5.8 µM,20.9 µM,12.4 µM,25 µM,8.11 µM,27.1 µM,28.2 µM,7.28 µM,20.9 µM,6.28 µM,21.6 µM,19.9 µM,22.3 µM,6.26 µM,20.6 µM,3.46 µM,12.1 µM,10.7 µM,0.0747 µM,10.5 µM
CC1(C)C2CCC13C(=O)C1OC3(C2)C2C(=O)c3ccccc3C(=O)C12 (centres undefined),77.2 µM,> 100 µM,> 100 µM,> 100 µM,,,> 100 µM,,,> 100 µM,> 100 µM,> 100 µM,> 100 µM,> 100 µM,> 100 µM,> 100 µM,> 100 µM,> 100 µM,> 100 µM,> 100 µM
Cc1cc2c(C(C)C)c(O)c(O)cc2c(O)c1-c1c(C)cc2c(C(C)C)c(O)c(O)cc2c1O,12.4 µM,27.7 µM,17.9 µM,36.5 µM,13.1 µM,39.3 µM,34.9 µM,16.7 µM,40.5 µM,12 µM,34.6 µM,45.7 µM,60 µM,23.9 µM,73.5 µM,15.1 µM,33.5 µM,16.5 µM,19.1 µM,24.5 µM
O=C(Nc1cccc(-n2cc(-c3ccncc3)c(-c3ccc(Cl)c(O)c3)n2)c1)Nc1cc(C(F)(F)F)cc(C(F)(F)F)c1,0.261 µM,2.24 µM,0.846 µM,1.88 µM,0.434 µM,10.6 µM,5.14 µM,1.18 µM,3.73 µM,0.846 µM,2.29 µM,8.93 µM,2.3 µM,1.18 µM,2.83 µM,0.935 µM,2.21 µM,1.2 µM,1.55 µM,0.896 µM
C=C(C(N)=O)c1ccc([N+](=O)[O-])o1,,76 µM,,35.2 µM,,,49.6 µM,,32.3 µM,,37.9 µM,48 µM,37.1 µM,,87.9 µM,,9.64 µM,,,
O=C(C/C(=N/O)C(=O)NC1=C(Cl)C(=O)c2ccccc2C1=O)CC(c1ccccc1)c1c(O)c2ccccc2oc1=O (centres undefined),,> 100 µM,,32.8 µM,,> 100 µM,20.3 µM,,> 100 µM,,42.5 µM,38.1 µM,19 µM,,> 100 µM,,35 µM,,,
NCCCC[C@@H]1NC(=O)[C@H]2CCCN2C(=O)[C@H](Cc2ccccc2)CNC(=O)[C@H](Cc2ccccc2)NC1=O,> 37.5 µM,> 37.5 µM,> 37.5 µM,> 37.5 µM,> 37.5 µM,> 37.5 µM,> 37.5 µM,> 37.5 µM,> 37.5 µM,> 37.5 µM,> 37.5 µM,> 37.5 µM,> 37.5 µM,> 37.5 µM,> 37.5 µM,> 37.5 µM,> 37.5 µM,> 37.5 µM,> 37.5 µM,> 37.5 µM
CSC1=C(N)C(=O)c2[nH]cc(CO)c2C1=N,0.212 µM,0.916 µM,0.176 µM,0.326 µM,0.293 µM,1.2 µM,0.45 µM,0.198 µM,0.422 µM,0.246 µM,0.873 µM,0.644 µM,0.307 µM,0.623 µM,1.85 µM,0.281 µM,0.85 µM,0.206 µM,0.264 µM,0.165 µM
O=C(/C=C/Sc1cc(C(F)(F)F)cc(C(F)(F)F)c1)c1ccc(Cl)cc1,2.42 µM,5.97 µM,18.6 µM,33.7 µM,0.197 µM,1.02 µM,7.32 µM,17 µM,41.3 µM,14.4 µM,29.6 µM,4.09 µM,25.7 µM,15.1 µM,31.3 µM,12 µM,25.3 µM,2.49 µM,1.82 µM,12.8 µM
C=CCN=C(N/N=C/c1ccc([N+](=O)[O-])o1)NS(=O)(=O)c1cc(C(=O)Nc2ccc(Cl)cc2)c(Cl)cc1SC,2.13 µM,> 100 µM,14.1 µM,> 100 µM,0.504 µM,,> 100 µM,1.02 µM,> 100 µM,2.85 µM,> 100 µM,> 51.5 µM,> 100 µM,> 100 µM,> 100 µM,,,13.5 µM,5.96 µM,> 100 µM
O=C1c2cc3c(cc2[C@@H]2[C@H]1c1ccc([N+](=O)[O-])cc1C(=O)N2CCCBr)OCO3,< 0.01 µM,0.184 µM,< 0.0158 µM,,,,< 0.01 µM,< 0.01 µM,3.64 µM,< 0.01 µM,0.394 µM,> 100 µM,0.0775 µM,< 0.01 µM,> 100 µM,< 0.01 µM,< 0.01 µM,< 0.01 µM,< 0.01 µM,< 0.01 µM
CC1(C)CC(O)C(C)(C)[C@@H](O)C1 (some centres undefined),,> 100 µM,,> 100 µM,,,> 100 µM,,> 100 µM,,> 100 µM,> 100 µM,> 100 µM,,> 100 µM,,> 100 µM,,,
C[C@@H]1[C@H](C)N1CC(O)Cn1ccnc1[N+](=O)[O-] (some centres undefined),,> 100 µM,,> 100 µM,,,> 100 µM,,> 100 µM,,> 100 µM,> 100 µM,> 100 µM,,> 100 µM,,> 100 µM,,,
